Reference: patent US12630548B2, “Azetidine derivatives for the treatment of integrin associated diseases” (The University of Nottingham, priority 2020, dated 2026)
Read-outs that look alike come from different tables or passages of the source.

How the values were obtained:
hERG = hERG (Homo sapiens, UniProt Q12809); assay: hERG Q-patch; format: cell-based; settings: read-out: hERG Q-patch (pIC50) (converted)
Source text: The human ether-a-go-go related gene (hERG) encodes the inward rectifying voltage gated potassium channel in the heart (IKr) that is involved in cardiac repolarisation. Inhibition of the hERG current causes QT interval prolongation resulting in potentially fatal ventricular tachyarrhythmia called Torsade de Pointes. A number of drugs have been withdrawn from late stage clinical trials due to these cardiotoxic effects, therefore it is important to identify inhibitors early in drug discovery (W. Haverkamp et al. Eur Heart J., 2000, 21(15), 1216). A low potency in this screen is advantageous for compound development.

[1] = ChromlogD (lipophilicity); format: physicochemical; settings: pH 7.4
Source text: ChromlogD is a measure of lipophilicity of a compound (R. J. Young et al. Drug Discovery Today 2011, […]). Lipophilicity is a key physicochemical property that plays a crucial role in determining ADMET (absorption, distribution, metabolism, excretion, and toxicity) properties and the overall suitability of drug candidates.

ανβ6 = ανβ6 (Homo sapiens, UniProt P06756+P18564); assay: Cell adhesion assay, αvβ6 integrin; format: cell-based
ανβ6, sequence (P06756 31-889 limits assumed): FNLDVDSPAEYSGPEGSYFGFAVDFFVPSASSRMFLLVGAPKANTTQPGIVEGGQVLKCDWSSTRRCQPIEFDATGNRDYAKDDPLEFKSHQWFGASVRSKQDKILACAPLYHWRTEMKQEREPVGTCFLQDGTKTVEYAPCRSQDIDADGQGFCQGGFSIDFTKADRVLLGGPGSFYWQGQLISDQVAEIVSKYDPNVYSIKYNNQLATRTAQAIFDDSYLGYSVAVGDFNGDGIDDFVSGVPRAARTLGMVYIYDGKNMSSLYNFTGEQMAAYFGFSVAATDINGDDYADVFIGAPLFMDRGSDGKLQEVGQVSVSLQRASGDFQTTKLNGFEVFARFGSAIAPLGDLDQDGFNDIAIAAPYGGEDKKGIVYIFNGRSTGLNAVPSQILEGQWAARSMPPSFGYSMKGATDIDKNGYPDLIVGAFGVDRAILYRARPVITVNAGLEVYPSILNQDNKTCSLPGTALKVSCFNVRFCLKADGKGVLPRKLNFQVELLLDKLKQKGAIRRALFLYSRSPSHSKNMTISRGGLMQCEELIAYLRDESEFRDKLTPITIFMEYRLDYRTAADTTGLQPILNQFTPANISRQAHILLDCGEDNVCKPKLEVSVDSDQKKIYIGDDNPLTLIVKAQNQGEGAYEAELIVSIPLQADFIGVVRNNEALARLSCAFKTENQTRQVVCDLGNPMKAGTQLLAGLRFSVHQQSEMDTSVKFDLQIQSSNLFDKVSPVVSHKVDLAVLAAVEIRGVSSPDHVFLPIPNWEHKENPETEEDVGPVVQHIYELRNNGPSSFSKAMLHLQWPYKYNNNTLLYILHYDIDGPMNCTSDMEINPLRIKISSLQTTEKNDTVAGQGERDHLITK
ανβ6, sequence (P06756 891-1048 limits assumed): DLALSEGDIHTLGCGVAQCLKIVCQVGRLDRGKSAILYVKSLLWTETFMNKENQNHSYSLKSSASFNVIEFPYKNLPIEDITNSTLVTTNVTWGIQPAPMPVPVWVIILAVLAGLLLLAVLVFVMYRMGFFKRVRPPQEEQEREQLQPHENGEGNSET
ανβ6, sequence (P18564 22-788): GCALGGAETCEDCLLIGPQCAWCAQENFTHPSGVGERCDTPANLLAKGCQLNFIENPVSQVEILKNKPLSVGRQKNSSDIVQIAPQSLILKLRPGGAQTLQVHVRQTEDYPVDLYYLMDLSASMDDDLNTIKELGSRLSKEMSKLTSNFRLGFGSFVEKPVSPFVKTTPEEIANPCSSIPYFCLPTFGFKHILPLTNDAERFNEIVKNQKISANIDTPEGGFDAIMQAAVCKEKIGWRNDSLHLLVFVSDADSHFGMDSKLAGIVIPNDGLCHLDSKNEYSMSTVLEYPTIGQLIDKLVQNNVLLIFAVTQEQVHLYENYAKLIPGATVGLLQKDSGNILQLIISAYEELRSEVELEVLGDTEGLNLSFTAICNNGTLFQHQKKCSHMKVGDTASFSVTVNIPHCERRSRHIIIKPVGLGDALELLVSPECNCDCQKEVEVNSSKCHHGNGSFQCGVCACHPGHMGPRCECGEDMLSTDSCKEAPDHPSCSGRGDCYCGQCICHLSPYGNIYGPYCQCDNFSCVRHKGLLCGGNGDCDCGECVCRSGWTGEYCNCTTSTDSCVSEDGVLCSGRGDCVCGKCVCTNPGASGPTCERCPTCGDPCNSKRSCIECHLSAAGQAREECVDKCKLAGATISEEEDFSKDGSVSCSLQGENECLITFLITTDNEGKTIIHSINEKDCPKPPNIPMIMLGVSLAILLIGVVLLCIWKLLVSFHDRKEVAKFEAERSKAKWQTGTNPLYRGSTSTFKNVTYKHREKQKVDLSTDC
Description: The assays were performed as described in the literature (P. A. Procopiou, N. A. Anderson, J. Barrett, T. N. Barrett, M. H. J. Crawford, B. J. Fallon, A. P. Hancock, J. Le, S. Lemma, R. P. Marshall, J. Morrell, J. M. Pritchard, J. E. Rowedder, P. Saklatvala, R. J. Slack, S. L. Sollis, C. J. Suckling, L. R. Thorp, G. Vitulli, et al., J. Med. Chem. 2018, 61, 8417-8443; S. B. Ludbrook, S. T. Barry, C. J. Delves, C. M. T. Horgan, Biochem. J. 2003, 369, 311-318).

[2] = cell adhesion data, read-out: ανβ6 IC50

hERG, sequence (Q12809 whole entry): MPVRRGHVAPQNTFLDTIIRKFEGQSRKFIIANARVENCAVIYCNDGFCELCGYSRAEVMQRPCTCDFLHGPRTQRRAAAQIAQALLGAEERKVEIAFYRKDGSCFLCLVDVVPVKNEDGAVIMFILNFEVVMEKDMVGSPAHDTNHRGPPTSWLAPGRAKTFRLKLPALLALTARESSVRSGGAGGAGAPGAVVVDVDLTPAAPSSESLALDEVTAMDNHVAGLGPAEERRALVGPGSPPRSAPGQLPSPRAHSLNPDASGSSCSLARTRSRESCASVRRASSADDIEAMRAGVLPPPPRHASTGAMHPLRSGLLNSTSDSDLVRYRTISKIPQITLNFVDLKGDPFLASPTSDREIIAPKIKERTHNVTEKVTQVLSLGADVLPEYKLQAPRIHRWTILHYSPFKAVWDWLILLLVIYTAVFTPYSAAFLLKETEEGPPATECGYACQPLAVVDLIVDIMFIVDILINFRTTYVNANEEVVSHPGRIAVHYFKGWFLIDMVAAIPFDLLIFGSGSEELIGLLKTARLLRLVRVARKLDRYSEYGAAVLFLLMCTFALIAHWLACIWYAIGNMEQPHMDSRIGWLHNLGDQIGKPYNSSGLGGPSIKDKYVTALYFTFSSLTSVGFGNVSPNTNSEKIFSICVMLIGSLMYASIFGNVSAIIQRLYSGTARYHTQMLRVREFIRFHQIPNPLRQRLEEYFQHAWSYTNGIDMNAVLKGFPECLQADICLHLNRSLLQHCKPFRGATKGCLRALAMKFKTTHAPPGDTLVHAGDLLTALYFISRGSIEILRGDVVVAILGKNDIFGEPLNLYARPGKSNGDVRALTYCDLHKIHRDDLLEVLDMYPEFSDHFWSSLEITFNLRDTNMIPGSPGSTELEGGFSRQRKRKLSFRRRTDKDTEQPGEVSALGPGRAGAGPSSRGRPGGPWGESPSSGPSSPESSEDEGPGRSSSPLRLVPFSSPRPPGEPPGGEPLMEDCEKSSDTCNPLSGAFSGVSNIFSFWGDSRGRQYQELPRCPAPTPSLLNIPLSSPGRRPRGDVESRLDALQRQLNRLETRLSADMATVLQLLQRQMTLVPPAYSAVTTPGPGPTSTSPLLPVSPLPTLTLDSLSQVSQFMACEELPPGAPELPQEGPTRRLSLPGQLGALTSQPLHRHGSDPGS

| SMILES | IC50 (ανβ6; [2]) | also measured |
| --- | --- | --- |
| Cc1cccc(S(=O)(=O)N2CC(C(=O)N[C@@H](CNC(=O)CCCCc3ccc4c(n3)NCCC4)C(=O)O)C2)c1 [Example 6A] | < 250 nM | IC50 (hERG): > 31600 nM; chromatographic logD [1]: 2.27; IC50 (ανβ6; comparison table, Example 6A, read-out: αvβ6 (pIC50) (converted)): 5.01 nM |
| O=C(CCCCc1ccc2c(n1)NCCC2)NCC(NC(=O)C1CN(S(=O)(=O)c2ccc(Cl)s2)C1)C(=O)O (racemic) [Example 20, 2-(1-((5-chlorothiophen-2-yl)sulfonyl)azetidine-3-carboxamido)-3-(5-(5,6,7,8-tetrahydro-1,8-naphthyridin-2-yl)pentanamido)propanoic acid] | < 250 nM |  |
| CN(CCCCc1ccc2c(n1)NCCC2)CC[C@H](NC(=O)C1CN(S(=O)(=O)c2ccccc2)C1)C(=O)O [Example 38, (S)-4-(Methyl(4-(5,6,7,8-tetrahydro-1,8-naphthyridin-2-yl)butyl)amino)-2-(1-(phenylsulfonyl)azetidine-3-carboxamido)butanoic acid] | < 250 nM |  |
| O=C(CCCCc1ccc2c(n1)NCCC2)NC[C@H](NC(=O)C1CN(S(=O)(=O)c2cc(Cl)cc(Cl)c2)C1)C(=O)O [Example 23, (S)-2-(1-(3,5-Dichlorobenzenesulfonyl)azetidine-3-carboxamido)-3-(5-(5,6,7,8-tetrahydro-1,8-naphthyridin-2-yl)pentanamido)propanoic acid] | < 250 nM |  |
| Cc1cccc(S(=O)(=O)N2CC(C)(C(=O)NC(CNC(=O)CCCCc3ccc4c(n3)NCCC4)C(=O)O)C2)c1 (racemic) [Example 15, 2-(3-methyl-1-(3-methylbenzenesulfonyl)azetidine-3-carboxamido)-3-(5-(5,6,7,8-tetrahydro-1,8-naphthyridin-2-yl)pentanamido)propanoic acid] | < 250 nM |  |
| COc1cccc(S(=O)(=O)N2CC(C(=O)N[C@@H](CNC(=O)CCCCc3ccc4c(n3)NCCC4)C(=O)O)C2)c1 [Example 28, (S)-2-(1-(3-Methoxybenzenesulfonyl)azetidine-3-carboxamido)-3-(5-(5,6,7,8-tetrahydro-1,8-naphthyridin-2-yl)pentanamido)propanoic acid] | < 250 nM |  |
| Cc1cc(C)cc(S(=O)(=O)N2CC(C(=O)NC(CNC(=O)CCCCc3ccc4c(n3)NCCC4)C(=O)O)C2)c1 (racemic) [Example 11, 2-(1-(3,5-dimethylbenzenesulfonyl)azetidine-3-carboxamido)-3-(5-(5,6,7,8-tetrahydro-1,8-naphthyridin-2-yl)pentanamido)propanoic acid] | < 250 nM |  |
| O=C(CCCCc1ccc2c(n1)NCCC2)NCC(NC(=O)C1CN(S(=O)(=O)c2ccccc2)C1)C(=O)O (racemic) [Example 9, 2-(1-(phenylsulfonyl)azetidine-3-carboxamido)-3-(5-(5,6,7,8-tetrahydro-1,8-naphthyridin-2-yl)pentanamido)propanoic acid] | < 250 nM |  |
| O=C(CCCCc1ccc2c(n1)NCCC2)NCC(NC(=O)C1CN(S(=O)(=O)c2cccc(OC(F)(F)F)c2)C1)C(=O)O (racemic) [Example 8, 3-(5-(5,6,7,8-tetrahydro-1,8-naphthyridin-2-yl)pentanamido)-2-(1-(3-(trifluoromethoxy)benzenesulfonyl)azetidine-3-carboxamido)propanoic acid] | < 250 nM |  |
| Cc1cc(C)cc(S(=O)(=O)N2CC(C(=O)N[C@@H](CNC(=O)CCCCc3ccc4c(n3)NCCC4)C(=O)O)C2)c1 [Example 24, (S)-2-(1-(3,5-Dimethylbenzenesulfonyl)azetidine-3-carboxamido)-3-(5-(5,6,7,8-tetrahydro-1,8-naphthyridin-2-yl)pentanamido)propanoic acid] | < 250 nM |  |
| Cc1cccc(S(=O)(=O)N2CC(F)(C(=O)NC(CNC(=O)CCCCc3ccc4c(n3)NCCC4)C(=O)O)C2)c1 (racemic) [Example 17, 2-(3-fluoro-1-(3-methylbenzenesulfonyl)azetidine-3-carboxamido)-3-(5-(5,6,7,8-tetrahydro-1,8-naphthyridin-2-yl)pentanamido)propanoic acid] | < 250 nM |  |
| O=C(CCCCc1ccc2c(n1)NCCC2)NC[C@H](NC(=O)C1CN(S(=O)(=O)c2cccc(C(F)F)c2)C1)C(=O)O [Example 29, (S)-2-(1-(3-(Difluoromethyl)benzenesulfonyl)azetidine-3-carboxamido)-3-(5-(5,6,7,8-tetrahydro-1,8-naphthyridin-2-yl)pentanamido)propanoic acid] | < 250 nM |  |
